Measurements published in the NIST ThermoML archive (doi:10.1016/j.jct.2005.07.009).
± gives the expanded uncertainty stated by the source.

Columns and labels:
[1] = xn = mol fraction of the nth substance listed; details: 298.15 K, 101 kPa, Liquid, Vibrating tube method
[2] = excess molar enthalpy (molar enthalpy of mixing); xn = mol fraction of the nth substance listed; details: 298.15 K, 101 kPa, Liquid

For BrCCCCBr [1,4-dibromobutane] + CCOC(=O)CC, the mass density ([1]; x2 = 0.1225) was 1707.2 ± 1.4 kg/m3, the mass density ([1]; x2 = 0.1797) was 1654.41 ± 1.5 kg/m3 and the mass density ([1]; x2 = 0.2372) was 1601.35 ± 1.6 kg/m3. It also gave a mass density ([1]; x2 = 0.299) of 1544.11 ± 1.8 kg/m3, a mass density ([1]; x2 = 0.3597) of 1488.19 ± 1.9 kg/m3 and a mass density ([1]; x2 = 0.479) of 1376.63 ± 2.1 kg/m3. The mass density ([1]; x2 = 0.5912) was 1271.5 ± 2.2 kg/m3, the mass density ([1]; x2 = 0.6516) was 1214.75 ± 2.3 kg/m3 and the mass density ([1]; x2 = 0.7649) was 1107.74 ± 2.4 kg/m3. It also gave a mass density ([1]; x2 = 0.8159) of 1059.5 ± 2.4 kg/m3, a mass density ([1]; x2 = 0.8793) of 999.28 ± 2.4 kg/m3 and a mass density ([1]; x2 = 0.9306) of 950.5 ± 2.4 kg/m3. It also gave an excess molar enthalpy ([2]; x2 = 0.0536) of 0.00581 ± 0.000454 kcal/mol, an excess molar enthalpy ([2]; x2 = 0.1124) of 0.00918 ± 0.000502 kcal/mol and an excess molar enthalpy ([2]; x2 = 0.1759) of 0.0118 ± 0.00055 kcal/mol. It also gave an excess molar enthalpy ([2]; x2 = 0.2389) of 0.0119 ± 0.00055 kcal/mol, an excess molar enthalpy ([2]; x2 = 0.2996) of 0.0102 ± 0.000526 kcal/mol and an excess molar enthalpy ([2]; x2 = 0.357) of 0.00696 ± 0.000478 kcal/mol. It also gave an excess molar enthalpy ([2]; x2 = 0.4101) of 0.00217 ± 0.000406 kcal/mol, an excess molar enthalpy ([2]; x2 = 0.4558) of -0.00277 ± 0.00043 kcal/mol and an excess molar enthalpy ([2]; x2 = 0.4841) of -0.00619 ± 0.000478 kcal/mol. The excess molar enthalpy ([2]; x2 = 0.4948) was -0.00739 ± 0.000502 kcal/mol, the excess molar enthalpy ([2]; x2 = 0.5354) was -0.012 ± 0.000574 kcal/mol and the excess molar enthalpy ([2]; x2 = 0.5917) was -0.0157 ± 0.000645 kcal/mol. The excess molar enthalpy ([2]; x2 = 0.653) was -0.0173 ± 0.000693 kcal/mol, the excess molar enthalpy ([2]; x2 = 0.72) was -0.0174 ± 0.000693 kcal/mol and the excess molar enthalpy ([2]; x2 = 0.7905) was -0.015 ± 0.000645 kcal/mol. The excess molar enthalpy ([2]; x2 = 0.8639) was -0.011 ± 0.00055 kcal/mol and the excess molar enthalpy ([2]; x2 = 0.9353) was -0.00614 ± 0.000478 kcal/mol.
Molecule BrCCCCCBr [1,5-dibromopentane] + CCCCC(=O)OCC has a mass density ([1]; x2 = 0.0539) of 1645.46 ± 2.7 kg/m3, a mass density ([1]; x2 = 0.1105) of 1595.11 ± 2.7 kg/m3 and a mass density ([1]; x2 = 0.1636) of 1548.32 ± 2.7 kg/m3. For the same molecule, the mass density ([1]; x2 = 0.2206) was 1498.77 ± 2.7 kg/m3, the mass density ([1]; x2 = 0.3289) was 1405.86 ± 2.7 kg/m3 and the mass density ([1]; x2 = 0.3899) was 1354.43 ± 2.7 kg/m3. It also gave a mass density ([1]; x2 = 0.4455) of 1307.95 ± 2.7 kg/m3, a mass density ([1]; x2 = 0.5024) of 1260.98 ± 2.7 kg/m3 and a mass density ([1]; x2 = 0.5632) of 1211.27 ± 2.6 kg/m3. For the same molecule, the mass density ([1]; x2 = 0.5935) was 1186.69 ± 2.6 kg/m3, the mass density ([1]; x2 = 0.6792) was 1117.97 ± 2.6 kg/m3 and the mass density ([1]; x2 = 0.7412) was 1068.93 ± 2.5 kg/m3. The mass density ([1]; x2 = 0.803) was 1020.6 ± 2.5 kg/m3, the mass density ([1]; x2 = 0.8672) was 970.91 ± 2.4 kg/m3 and the mass density ([1]; x2 = 0.9294) was 923.31 ± 2.4 kg/m3. It also gave an excess molar enthalpy ([2]; x2 = 0.0537) of 0.00703 ± 0.000478 kcal/mol, an excess molar enthalpy ([2]; x2 = 0.1124) of 0.012 ± 0.000574 kcal/mol and an excess molar enthalpy ([2]; x2 = 0.1746) of 0.0158 ± 0.000645 kcal/mol. For the same molecule, the excess molar enthalpy ([2]; x2 = 0.2384) was 0.0178 ± 0.000693 kcal/mol, the excess molar enthalpy ([2]; x2 = 0.3005) was 0.0179 ± 0.000693 kcal/mol and the excess molar enthalpy ([2]; x2 = 0.3573) was 0.0158 ± 0.000645 kcal/mol. The excess molar enthalpy ([2]; x2 = 0.4121) was 0.012 ± 0.000574 kcal/mol, the excess molar enthalpy ([2]; x2 = 0.4619) was 0.00674 ± 0.000478 kcal/mol and the excess molar enthalpy ([2]; x2 = 0.5075) was 0.00098 ± 0.000406 kcal/mol. The excess molar enthalpy ([2]; x2 = 0.5483) was -0.00344 ± 0.00043 kcal/mol, the excess molar enthalpy ([2]; x2 = 0.5745) was -0.00566 ± 0.000478 kcal/mol and the excess molar enthalpy ([2]; x2 = 0.6374) was -0.00863 ± 0.000526 kcal/mol. The excess molar enthalpy ([2]; x2 = 0.7074) was -0.01 ± 0.000526 kcal/mol, the excess molar enthalpy ([2]; x2 = 0.7809) was -0.00994 ± 0.000526 kcal/mol and the excess molar enthalpy ([2]; x2 = 0.8572) was -0.00848 ± 0.000526 kcal/mol. For the same molecule, the excess molar enthalpy ([2]; x2 = 0.9337) was -0.00483 ± 0.000454 kcal/mol.
BrCCCCCBr [1,5-dibromopentane] + CCOC=O gave a mass density ([1]; x2 = 0.089) of 1651.25 ± 2.7 kg/m3, a mass density ([1]; x2 = 0.1775) of 1605.2 ± 2.8 kg/m3 and a mass density ([1]; x2 = 0.2567) of 1560.84 ± 2.9 kg/m3. It also gave a mass density ([1]; x2 = 0.3412) of 1509.84 ± 2.9 kg/m3, a mass density ([1]; x2 = 0.4134) of 1463.17 ± 2.9 kg/m3 and a mass density ([1]; x2 = 0.5374) of 1374.43 ± 3 kg/m3. For the same molecule, the mass density ([1]; x2 = 0.7024) was 1237.83 ± 2.9 kg/m3, the mass density ([1]; x2 = 0.7951) was 1149.61 ± 2.8 kg/m3 and the mass density ([1]; x2 = 0.8844) was 1054.85 ± 2.6 kg/m3. It also gave a mass density ([1]; x2 = 0.9227) of 1010.83 ± 2.6 kg/m3, an excess molar enthalpy ([2]; x2 = 0.0896) of 0.0659 ± 0.00184 kcal/mol and an excess molar enthalpy ([2]; x2 = 0.1866) of 0.108 ± 0.00287 kcal/mol. The excess molar enthalpy ([2]; x2 = 0.279) was 0.138 ± 0.00359 kcal/mol, the excess molar enthalpy ([2]; x2 = 0.3638) was 0.157 ± 0.00406 kcal/mol and the excess molar enthalpy ([2]; x2 = 0.4389) was 0.166 ± 0.0043 kcal/mol. The excess molar enthalpy ([2]; x2 = 0.5051) was 0.169 ± 0.0043 kcal/mol, the excess molar enthalpy ([2]; x2 = 0.5631) was 0.166 ± 0.0043 kcal/mol and the excess molar enthalpy ([2]; x2 = 0.6125) was 0.158 ± 0.00406 kcal/mol. It also gave an excess molar enthalpy ([2]; x2 = 0.6372) of 0.153 ± 0.00406 kcal/mol, an excess molar enthalpy ([2]; x2 = 0.6548) of 0.149 ± 0.00382 kcal/mol and an excess molar enthalpy ([2]; x2 = 0.6837) of 0.142 ± 0.00359 kcal/mol. The excess molar enthalpy ([2]; x2 = 0.6928) was 0.139 ± 0.00359 kcal/mol, the excess molar enthalpy ([2]; x2 = 0.7324) was 0.128 ± 0.00335 kcal/mol and the excess molar enthalpy ([2]; x2 = 0.7827) was 0.108 ± 0.00287 kcal/mol. It also gave an excess molar enthalpy ([2]; x2 = 0.831) of 0.088 ± 0.00237 kcal/mol, an excess molar enthalpy ([2]; x2 = 0.8797) of 0.065 ± 0.00182 kcal/mol and an excess molar enthalpy ([2]; x2 = 0.9254) of 0.0385 ± 0.00117 kcal/mol. The excess molar enthalpy ([2]; x2 = 0.966) was 0.0136 ± 0.000598 kcal/mol.
Work on BrCCCCBr [1,4-dibromobutane] + CCCC(=O)OCC yielded a mass density ([1]; x2 = 0.1092) of 1704.75 ± 1.3 kg/m3, a mass density ([1]; x2 = 0.1651) of 1647.4 ± 1.4 kg/m3 and a mass density ([1]; x2 = 0.2725) of 1539.36 ± 1.7 kg/m3. The mass density ([1]; x2 = 0.387) was 1427.18 ± 1.9 kg/m3, the mass density ([1]; x2 = 0.4481) was 1368.56 ± 2 kg/m3 and the mass density ([1]; x2 = 0.502) was 1317.46 ± 2 kg/m3. The mass density ([1]; x2 = 0.6423) was 1187.58 ± 2.2 kg/m3, the mass density ([1]; x2 = 0.6846) was 1149.12 ± 2.2 kg/m3 and the mass density ([1]; x2 = 0.7489) was 1091.51 ± 2.3 kg/m3. The mass density ([1]; x2 = 0.8041) was 1042.59 ± 2.3 kg/m3, the mass density ([1]; x2 = 0.9323) was 931.23 ± 2.3 kg/m3 and the excess molar enthalpy ([2]; x2 = 0.0504) was 0.00535 ± 0.000454 kcal/mol. The excess molar enthalpy ([2]; x2 = 0.1096) was 0.00903 ± 0.000502 kcal/mol, the excess molar enthalpy ([2]; x2 = 0.173) was 0.0111 ± 0.00055 kcal/mol and the excess molar enthalpy ([2]; x2 = 0.2384) was 0.0112 ± 0.00055 kcal/mol. For the same molecule, the excess molar enthalpy ([2]; x2 = 0.2992) was 0.00939 ± 0.000526 kcal/mol, the excess molar enthalpy ([2]; x2 = 0.3567) was 0.00607 ± 0.000478 kcal/mol and the excess molar enthalpy ([2]; x2 = 0.4115) was 0.000311 ± 0.000382 kcal/mol. For the same molecule, the excess molar enthalpy ([2]; x2 = 0.4617) was -0.00511 ± 0.000454 kcal/mol, the excess molar enthalpy ([2]; x2 = 0.5078) was -0.00975 ± 0.000526 kcal/mol and the excess molar enthalpy ([2]; x2 = 0.5351) was -0.0127 ± 0.000574 kcal/mol. The excess molar enthalpy ([2]; x2 = 0.5479) was -0.0133 ± 0.000598 kcal/mol, the excess molar enthalpy ([2]; x2 = 0.5908) was -0.0158 ± 0.000645 kcal/mol and the excess molar enthalpy ([2]; x2 = 0.6504) was -0.0171 ± 0.000669 kcal/mol. The excess molar enthalpy ([2]; x2 = 0.7147) was -0.0172 ± 0.000669 kcal/mol, the excess molar enthalpy ([2]; x2 = 0.7818) was -0.0157 ± 0.000645 kcal/mol and the excess molar enthalpy ([2]; x2 = 0.8513) was -0.0125 ± 0.000574 kcal/mol. The excess molar enthalpy ([2]; x2 = 0.9352) was -0.006 ± 0.000478 kcal/mol.
